Reference: patent US20260216294A1, “BETA 2-ADRENERGIC RECEPTOR AGONISTS FOR TREATMENT OR PREVENTION OF MUSCLE WASTING” (ATROGI AB, priority 2023, published 2026)

Key:
[1] = test system: L6-myotubes; experiment: Glucose uptake in differentiated L6-myotubes (Biological Example 2); type: cell-based; conditions: read-out: Biological example 2 (GU)
Procedure, shortened: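 Uptake was quantified as radioactivity in 0.2 M NaOH lysates after a 10 min pulse of 50 nM ^3H-2-deoxyglucose. The pulse followed two agonist exposures at 1×10^−5 M final (isoprenaline or test compound): 1 h 40 min, then 20 min in glucose-free medium after washing. L6 myotubes had been starved overnight in medium with 0.5% fatty-acid-free BSA.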

[2] = test system: L6-myotubes; experiment: Measurement of intracellular cAMP levels in differentiated L6-myotubes (Biological Example 3); type: cell-based; conditions: 0.25 h
Procedure, shortened: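 Intracellular cAMP quantified by AlphaScreen after ethanol extraction and lysis of L6 myotubes. Cells were serum-starved overnight, then exposed for 15 min to compound (final 1×10^−5 M) or isoprenaline in IBMX-containing (1 mM) HBSS buffer, pH 7.4.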

[3] = glucose uptake in differentiated L6-myotubes, compound at 10 μM, activity relative to isoproterenol at 10 μM
[4] = intracellular cAMP in differentiated L6-myotubes, compound at 10 μM, activity relative to isoproterenol at 10 μM
[5] = glucose uptake, compound at 10 μM relative to isoproterenol at 10 μM
[6] = intracellular cAMP, compound at 10 μM relative to isoproterenol at 10 μM

Row | SMILES | Emax at 10 µM [1, 3] [%] | Emax at 10 µM [2, 4] [%] | Emax at 10 µM [1, 5] [%] | Emax at 10 µM [2, 6] [%]
1 | COC(=O)[C@H]1CC[C@H](C(C)(C)NC[C@H](O)c2cccc(F)c2)CC1 [Compound 367, (1R,4r)-8-[(R)-2-(m-fluorophenyl)-2-hydroxyethylamino]-7-methoxy-p-menthan-7-one] | > 75 | 25 to 50 | – | –
2 | C[C@H]1CC[C@@H]([C@@H](O)c2cccc(O)c2)N1 (racemic) [Compound 41, Racemic mixture of m-{(R)-[(2R,5R)-5-methyl-2-pyrrolidinyl] hydroxymethyl}phenol and m-{(S)-[(2S,5S)-5-methyl-2-pyrrolidinyl] hydroxymethyl}phenol] | – | – | > 75 | < 25
3 | CC1(C)C[C@H]([C@H](O)c2cccc(Cl)c2)N1 [Compound 230] | > 75 | < 25 | – | –
4 | CCCCNCC(O)c1ccc(F)c(NC(C)=O)c1F (stereo not shown) [Compound 42, N-{3-[2-(butylamino)-1-hydroxyethyl]-2,6-difluorophenyl}acetamide] | – | – | 25 to 50 | < 25
5 | CS(=O)(=O)N(Cc1ccccc1)CC12CCC([C@H](O)c3cccc(F)c3)(CC1)N2 [Compound 537, (R)-(4-{[(benzyl)-N-mesylamino]methyl}-7-azabicyclo[[2.2.1]]hept-1-yl)(m-fluorophenyl)methanol] | 50 to 75 | 25 to 50 | – | –
6 | CCCCNCC(O)c1cc(F)c(N)c(F)c1 (stereo not shown) [Compound 37, 1-(4-amino-3,5-difluorophenyl)-2-(butylamino)-1-ethanol] | – | – | > 75 | > 75
7 | COC(=O)[C@H]1CC[C@@H](C(C)(C)NC[C@H](O)c2cccc(F)c2)CC1 [Compound 328, (1S,4s)-8-[(R)-2-(m-fluorophenyl)-2-hydroxyethylamino]-7-methoxy-p-menthan-7-one] | > 75 | < 25 | – | –
8 | COC(=O)[C@H]1CC[C@@H](CCC(C)(C)NC[C@H](O)c2cccc(F)c2)CC1 [Compound 351, methyl (1S,4s)-4-{3-[(R)-2-(m-fluorophenyl)-2-hydroxyethylamino]-3-methylbutyl} cyclohexanecarboxylate] | > 75 | 25 to 50 | – | –
9 | COc1ccc(C[C@H]2CC[C@H]([C@H](O)c3cccc(F)c3)N2)cc1 [Compound 374, (R)-{(2R,5R)-5-[(p-methoxyphenyl)methyl]-2-pyrrolidinyl}(m-fluorophenyl)methanol] | > 75 | < 25 | – | –
10 | COc1ccc(CCC23CCC([C@@H](O)c4cccc(F)c4)(CC2)N3)cc1 [Compound 539, (S)-(m-fluorophenyl){4-[2-(p-methoxyphenyl)ethyl]-7-azabicyclo[[2.2.1]]hept-1-yl}methanol] | < 25 | < 25 | – | –
11 | CCC[C@H]1CCC[C@H]([C@@H](O)c2cccc(Cl)c2)N1 [Compound 128] | – | – | 25 to 50 | < 25
12 | CC(C)(C)NC[C@H](O)c1ccc(O)cn1 [Compound 95, 6-[(S)-2-(tert-butylamino)-1-hydroxyethyl]-3-pyridinol] | – | – | 50 to 75 | < 25
13 | CCCCNC[C@H](O)c1csc(C(F)(F)F)n1 [Compound 72, (S)-2-(butylamino)-1-[2-(trifluoromethyl)-1,3-thiazol-4-yl]-1-ethanol] | – | – | 25 to 50 | < 25
14 | COC(=O)[C@H]1CC[C@H](CCC(C)(C)NC[C@H](O)c2cccc(F)c2)CC1 [Compound 350, methyl (1R,4r)-4-{3-[(R)-2-(m-fluorophenyl)-2-hydroxyethylamino]-3-methylbutyl} cyclohexanecarboxylate] | > 75 | < 25 | – | –
15 | CCCCNCC(O)c1cc[nH]c(=O)c1 (stereo not shown) [Compound 62, 4-[2-(butylamino)-1-hydroxyethyl]-2(1H)-pyridinone] | – | – | 25 to 50 | < 25
16 | O[C@@H](c1cccc(F)c1)C12CCC(C/C=C/c3ccccc3)(CC1)N2 [Compound 533, (S)-{4-[(E)-3-phenyl-2-propenyl]-7-azabicyclo[[2.2.1]]hept-1-yl}(m-fluorophenyl)methanol] | < 25 | < 25 | – | –
17 | CC12CC(C1)[C@H]([C@@H](O)c1cccc(Cl)c1)N2 [Compound 208] | 50 to 75 | < 25 | – | –
18 | CCC[C@@H]1CCCC[C@H]([C@@H](O)c2cncc(F)c2)N1 [Compound 218, (S)-[(2R,7R)-7-propyl-2-azepanyl](5-fluoro-3-pyridyl)methanol] | < 25 | < 25 | – | –
19 | CCCCNC[C@H](O)c1ccnc(N)n1 [Compound 73, (S)-1-(2-amino-4-pyrimidinyl)-2-(butylamino)-1-ethanol] | – | – | 25 to 50 | < 25
20 | CC(C)(NC[C@H](O)c1cncc(F)c1)[C@H]1CC[C@H](O)CC1 [Compound 285, (R)-1-(5-fluoro-3-pyridyl)-2-{1-methyl-1-[(1r,4R)-4-hydroxycyclohexyl]ethylamino}-1-ethanol] | 50 to 75 | < 25 | – | –
21 | CC1(C)CC[C@H]([C@@H](O)c2ccccc2Cl)N1 [Compound 151] | – | – | < 25 | < 25

Row | SMILES | Emax at 10 µM [1, 3] [%] | Emax at 10 µM [2, 4] [%] | Emax at 10 µM [1, 5] [%] | Emax at 10 µM [2, 6] [%]
22 | CS(=O)(=O)N(Cc1ccccc1)[C@H]1CC[C@@H](C[C@@H]2CC[C@H]([C@H](O)c3cccc(F)c3)N2)CC1 [Compound 508, (R)-[(2R,5S)-5-({(1s,4R)-4-[(benzyl)-N-mesylamino]cyclohexyl}methyl)-2-pyrrolidinyl](m-fluorophenyl)methanol] | < 25 | < 25 | – | –
23 | O[C@H](c1cccc(F)c1)C12CCC(Cc3ccc(F)cc3)(CC1)N2 [Compound 413, (R)-(m-fluorophenyl){4-[(p-fluorophenyl)methyl]-7-azabicyclo[[2.2.1]]hept-1-yl}methanol] | > 75 | < 25 | – | –
24 | CC12CC(C1)[C@@H]([C@@H](O)c1cccc(N)c1F)N2 [Compound 242, (S)-{(S)-1-methyl-2-azabicyclo[[2.1.1]]hex-3-yl}(3-amino-2-fluorophenyl)methanol] | 50 to 75 | < 25 | – | –
25 | COC(=O)[C@H]1CC[C@@H](C(C)(C)NC[C@H](O)c2cncc(F)c2)CC1 [Compound 321, (1S,4s)-8-[(R)-2-(5-fluoro-3-pyridyl)-2-hydroxyethylamino]-7-methoxy-p-menthan-7-one] | 50 to 75 | < 25 | – | –
26 | CCC[C@H]1CC[C@H]([C@H](O)c2cccc(O)c2)N1 [Compound 125, m-{(R)-[(2R,5S)-5-propyl-2-pyrrolidinyl] hydroxymethyl}phenol] | – | – | 50 to 75 | < 25
27 | CCC[C@@H]1CCC[C@H]([C@H](O)c2ccccc2F)N1 [Compound 97, (R)-[(2R,6R)-6-propyl-2-piperidyl](o-fluorophenyl)methanol] | – | – | 50 to 75 | < 25
28 | CCC[C@H](C)NC[C@H](O)c1cccc(F)c1 [Compound 51] | – | – | > 75 | < 25
29 | CO[C@H]1CC[C@H](C[C@@H]2CC[C@H]([C@H](O)c3cncc(F)c3)N2)CC1 [Compound 333] | 25 to 50 | < 25 | – | –
30 | CCC[C@@H]1CC[C@@H]([C@H](O)c2cccc(F)c2)N1 [Compound 132, (R)-[(2S,5R)-5-propyl-2-pyrrolidinyl](m-fluorophenyl)methanol] | – | – | 25 to 50 | < 25
31 | CC(C)(C)CNC[C@H](O)c1cccc(F)c1 [Compound 117, (R)-1-(m-fluorophenyl)-2-(neopentylamino)-1-ethanol] | – | – | 25 to 50 | < 25
32 | CC1(C)C[C@H]([C@@H](O)c2cccc(F)c2)N1 [Compound 201] | < 25 | < 25 | – | –
33 | CC(C)(NC[C@H](O)c1cncc(F)c1)[C@H]1CC[C@H](N)CC1 [Compound 344] | < 25 | < 25 | – | –
34 | CC1(C)CCC[C@H]([C@H](O)c2cccc(Cl)c2)N1 [Compound 165] | – | – | 25 to 50 | < 25
35 | CNS(=O)(=O)[C@H]1CC[C@H](CC(C)(C)NC[C@H](O)c2cccc(F)c2)CC1 [Compound 476] | > 75 | 25 to 50 | – | –
36 | CCC[C@H]1CCC[C@H]([C@H](O)c2ccccc2Cl)N1 [Compound 135, (R)-[(2R,6S)-6-propyl-2-piperidyl](o-chlorophenyl)methanol] | – | – | 25 to 50 | < 25
37 | CC(=O)N[C@H]1CC[C@H](CC(C)(C)NC[C@H](O)c2cccc(F)c2)CC1 [Compound 383] | > 75 | 25 to 50 | – | –
38 | O[C@@H](CNC[C@H]1CC[C@H](O)CC1)c1cccc(F)c1 [Compound 272, (R)-1-(m-fluorophenyl)-2-({[(1r,4R)-4-hydroxycyclohexyl]methyl}amino)-1-ethanol] | 25 to 50 | < 25 | – | –
39 | CCC[C@@H]1CCC[C@H]([C@@H](O)c2ccccc2F)N1 [Compound 107, (S)-[(2R,6R)-6-propyl-2-piperidyl](o-fluorophenyl)methanol] | – | – | 25 to 50 | < 25
40 | CN(C)S(=O)(=O)[C@H]1CC[C@H](CC(C)(C)NC[C@H](O)c2cncc(F)c2)CC1 [Compound 465] | 50 to 75 | 25 to 50 | – | –
41 | CCCCNC[C@H](O)c1cccc(F)c1 [Compound 47, (R)-2-(butylamino)-1-(m-fluorophenyl)-1-ethanol] | – | – | 50 to 75 | < 25
